From ChEMBL document CHEMBL4418912, “Methods of identifying antagonists of the hTAS2R46 bitter taste receptor” (2014)
Calls of active or inactive are those of the source. The rule behind the calls is not given here.

Experiments:
Type in all cases: functional, cell-based
[1] = molecular target: T1, Taste receptor type 2 member 7 (Homo sapiens) (UniProt Q9NYW3); test: Agonist activity at recombinant human N-terminal rat ST3 receptor-fused TAS2R7 expressed in HEK293T cells co-expressing Galpha16gust44 assessed as increase in intracellular calcium level at 100 uM by FLIPR assay
T1 sequence (whole entry): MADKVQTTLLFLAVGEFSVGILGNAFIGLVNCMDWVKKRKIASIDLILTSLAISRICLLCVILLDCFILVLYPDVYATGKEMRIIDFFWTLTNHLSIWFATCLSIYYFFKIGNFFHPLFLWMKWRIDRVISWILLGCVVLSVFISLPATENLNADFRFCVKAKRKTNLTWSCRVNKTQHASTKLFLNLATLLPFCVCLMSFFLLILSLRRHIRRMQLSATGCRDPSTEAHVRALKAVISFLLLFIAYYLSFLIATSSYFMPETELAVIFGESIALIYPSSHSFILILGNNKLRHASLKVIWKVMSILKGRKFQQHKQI

[2] = molecular target: T2, Taste receptor type 2 member 38 (Homo sapiens) (UniProt P59533); test: Agonist activity at recombinant human N-terminal rat ST3 receptor-fused TAS2R38 expressed in HEK293T cells co-expressing Galpha16gust44 assessed as increase in intracellular calcium level at 100 uM by FLIPR assay
T2 sequence (whole entry): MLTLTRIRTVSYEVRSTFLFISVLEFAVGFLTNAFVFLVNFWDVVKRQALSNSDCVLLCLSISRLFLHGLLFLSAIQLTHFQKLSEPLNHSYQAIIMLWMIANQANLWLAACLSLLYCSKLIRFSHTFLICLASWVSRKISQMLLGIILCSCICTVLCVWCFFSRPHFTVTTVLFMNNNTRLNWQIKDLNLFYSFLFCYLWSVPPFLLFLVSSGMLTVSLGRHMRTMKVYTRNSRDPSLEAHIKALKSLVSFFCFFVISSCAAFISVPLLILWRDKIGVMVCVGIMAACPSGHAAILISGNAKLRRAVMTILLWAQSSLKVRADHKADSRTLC

[3] = molecular target: T3, Taste receptor type 2 member 3 (Homo sapiens) (UniProt Q9NYW6); test: Agonist activity at recombinant human N-terminal rat ST3 receptor-fused TAS2R3 expressed in HEK293T cells co-expressing Galpha16gust44 assessed as increase in intracellular calcium level at 100 uM by FLIPR assay
T3 sequence (whole entry): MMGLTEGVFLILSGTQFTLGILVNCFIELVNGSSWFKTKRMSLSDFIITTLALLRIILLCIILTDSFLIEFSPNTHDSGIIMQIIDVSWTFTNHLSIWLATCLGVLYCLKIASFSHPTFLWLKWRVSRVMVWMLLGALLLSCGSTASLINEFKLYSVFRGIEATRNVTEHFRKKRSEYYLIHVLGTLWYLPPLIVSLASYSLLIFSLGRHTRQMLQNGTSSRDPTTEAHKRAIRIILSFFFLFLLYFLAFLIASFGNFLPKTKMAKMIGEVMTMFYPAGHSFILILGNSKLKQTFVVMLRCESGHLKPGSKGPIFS

[4] = molecular target: Taste receptor type 2 member 40 (Homo sapiens) (UniProt P59535); test: Agonist activity at recombinant human N-terminal rat ST3 receptor-fused TAS2R40 expressed in HEK293T cells co-expressing Galpha16gust44 assessed as increase in intracellular calcium level at 100 uM by FLIPR assay
[5] = molecular target: Taste receptor type 2 member 42 (Homo sapiens) (UniProt Q7RTR8); test: Agonist activity at recombinant human N-terminal rat ST3 receptor-fused TAS2R42 expressed in HEK293T cells co-expressing Galpha16gust44 assessed as increase in intracellular calcium level at 100 uM by FLIPR assay
[6] = molecular target: Taste receptor type 2 member 45 (Homo sapiens) (UniProt P59539); test: Agonist activity at recombinant human N-terminal rat ST3 receptor-fused TAS2R45 expressed in HEK293T cells co-expressing Galpha16gust44 assessed as increase in intracellular calcium level at 100 uM by FLIPR assay
[7] = molecular target: Taste receptor type 2 member 19 (Homo sapiens) (UniProt P59542); test: Agonist activity at recombinant human N-terminal rat ST3 receptor-fused TAS2R48 expressed in HEK293T cells co-expressing Galpha16gust44 assessed as increase in intracellular calcium level at 100 uM by FLIPR assay
[8] = molecular target: T4, Taste receptor type 2 member 5 (Homo sapiens) (UniProt Q9NYW4); test: Potentiation of denatonium saccharide-induced agonist activity at recombinant human N-terminal rat ST3 receptor-fused TAS2R5 expressed in HEK293T cells co-expressing Galpha16gust44 assessed as increase in intracellular calcium level at 100 uM by FLIPR assay
T4 sequence (whole entry): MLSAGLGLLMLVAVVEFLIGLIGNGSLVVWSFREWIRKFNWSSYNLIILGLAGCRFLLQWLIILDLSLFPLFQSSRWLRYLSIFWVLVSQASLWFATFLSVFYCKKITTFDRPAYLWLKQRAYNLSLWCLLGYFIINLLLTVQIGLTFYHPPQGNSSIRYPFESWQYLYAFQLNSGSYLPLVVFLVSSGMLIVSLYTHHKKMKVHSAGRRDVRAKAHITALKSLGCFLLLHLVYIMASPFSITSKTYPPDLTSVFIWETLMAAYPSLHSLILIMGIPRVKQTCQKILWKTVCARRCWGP

[9] = molecular target: T5, Taste receptor type 2 member 10 (Homo sapiens) (UniProt Q9NYW0); test: (§1) Competitive-antagonist activity at recombinant human N-terminal rat ST3 receptor-fused TAS2R10 expressed in HEK293T cells co-expressing Galpha16gust44 assessed as inhibition of strychnine-induced increase in intracellular calcium level by measuring maximum signal amplitude at 30 uM by FLIPR assay (reference value: 0.42 +/- 0.09 a.u.)
T5 sequence (whole entry): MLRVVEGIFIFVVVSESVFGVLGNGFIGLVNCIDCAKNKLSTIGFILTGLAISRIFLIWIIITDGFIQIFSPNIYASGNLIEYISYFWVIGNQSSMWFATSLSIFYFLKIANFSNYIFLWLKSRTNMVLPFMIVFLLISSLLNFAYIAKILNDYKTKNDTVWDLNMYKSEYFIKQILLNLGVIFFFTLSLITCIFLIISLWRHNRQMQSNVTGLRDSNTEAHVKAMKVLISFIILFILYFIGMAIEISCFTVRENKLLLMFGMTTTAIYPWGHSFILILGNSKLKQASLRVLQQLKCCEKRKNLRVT

[10] = molecular target: T5, Taste receptor type 2 member 10 (Homo sapiens); test: as §1, with “100” for “30”

Chain of Taste receptor type 2 member 19 (Homo sapiens) (P59542 whole entry, the tested form may be a part): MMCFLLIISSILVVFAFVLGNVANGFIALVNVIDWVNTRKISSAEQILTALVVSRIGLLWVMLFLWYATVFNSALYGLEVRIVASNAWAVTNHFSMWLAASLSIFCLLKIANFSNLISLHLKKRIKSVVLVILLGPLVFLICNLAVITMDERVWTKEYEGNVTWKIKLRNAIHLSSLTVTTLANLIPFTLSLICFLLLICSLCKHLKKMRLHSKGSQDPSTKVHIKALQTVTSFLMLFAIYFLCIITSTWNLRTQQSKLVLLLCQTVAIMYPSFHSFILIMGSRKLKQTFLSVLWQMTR
Chain of Taste receptor type 2 member 42 (Homo sapiens) (Q7RTR8 whole entry, the tested form may be a part): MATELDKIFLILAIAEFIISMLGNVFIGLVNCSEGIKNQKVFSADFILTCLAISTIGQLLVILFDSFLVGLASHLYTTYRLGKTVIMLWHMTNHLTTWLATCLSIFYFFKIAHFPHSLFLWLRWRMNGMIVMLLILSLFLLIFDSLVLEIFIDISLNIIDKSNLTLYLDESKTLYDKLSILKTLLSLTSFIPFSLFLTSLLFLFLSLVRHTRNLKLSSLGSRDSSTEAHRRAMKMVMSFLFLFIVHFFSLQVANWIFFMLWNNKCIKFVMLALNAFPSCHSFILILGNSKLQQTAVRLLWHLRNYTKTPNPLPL
Chain of Taste receptor type 2 member 45 (Homo sapiens) (P59539 whole entry, the tested form may be a part): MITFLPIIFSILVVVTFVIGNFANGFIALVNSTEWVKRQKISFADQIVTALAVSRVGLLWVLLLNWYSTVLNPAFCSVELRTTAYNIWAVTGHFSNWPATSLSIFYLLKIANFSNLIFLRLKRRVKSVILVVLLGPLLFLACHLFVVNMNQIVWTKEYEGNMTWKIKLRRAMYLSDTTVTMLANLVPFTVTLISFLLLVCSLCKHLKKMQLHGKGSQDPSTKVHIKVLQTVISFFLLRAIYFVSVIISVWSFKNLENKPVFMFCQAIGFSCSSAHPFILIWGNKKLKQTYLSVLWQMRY
Chain of Taste receptor type 2 member 40 (Homo sapiens) (P59535 whole entry, the tested form may be a part): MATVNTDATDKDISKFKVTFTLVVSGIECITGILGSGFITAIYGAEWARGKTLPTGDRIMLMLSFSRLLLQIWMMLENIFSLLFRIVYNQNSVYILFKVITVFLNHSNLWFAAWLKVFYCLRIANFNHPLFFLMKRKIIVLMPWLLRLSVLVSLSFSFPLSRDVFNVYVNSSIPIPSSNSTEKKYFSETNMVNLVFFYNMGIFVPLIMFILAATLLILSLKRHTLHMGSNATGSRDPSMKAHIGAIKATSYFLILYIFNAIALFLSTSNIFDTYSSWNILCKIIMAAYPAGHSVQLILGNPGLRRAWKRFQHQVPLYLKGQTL

In the case of `C/C1=C\C[C@H](O)/C(C)=C/[C@H]2OC(=O)[C@@H](C)[C@@H]2CC1`, the Activity [1] is reported as “Active”, the Activity [2] is reported as “Active” and the Activity [3] is reported as “inactive”. For the same compound, the Activity [4] was “inactive”, the Activity [5] was “inactive” and the Activity [6] was “inactive”. For the same compound, the Activity [7] was “inactive”, the Activity [8] was “Active” and the Activity [9] was 0.41 a.u. The Activity [10] was 0.34 a.u.
